Data reported in PubChem BioAssay (NCI).
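A five-concentration, 48-hour dose response in 96-well plates underlies each endpoint, interpolated linearly between surrounding concentrations. GI50: concentration for 50% inhibition of growth. At the TGI there is no net growth.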

Assays:
Experiment in all cases: growth of human tumour cells (NCI), 48 h
M14 melanoma = test system: M14 melanoma
HCT-116 colon = test system: HCT-116 colon
HOP-62 NSCLC = test system: HOP-62 NSCLC
SK-OV-3 ovarian = test system: SK-OV-3 ovarian
LOX IMVI melanoma = test system: LOX IMVI melanoma
SNB-75 CNS = test system: SNB-75 CNS
NCI-H460 lung = test system: NCI-H460 lung
BT-549 breast = test system: BT-549 breast
NCI-H226 lung = test system: NCI-H226 lung
A549 NSCLC = test system: A549 NSCLC

Row | SMILES | TGI (M14 melanoma) | TGI (HCT-116 colon) | TGI (HOP-62 NSCLC) | TGI (SK-OV-3 ovarian) | TGI (LOX IMVI melanoma) | TGI (SNB-75 CNS) | TGI (NCI-H460 lung) | TGI (BT-549 breast) | TGI (NCI-H226 lung) | GI50 (A549 NSCLC) | TGI (A549 NSCLC) | GI50 (M14 melanoma) | GI50 (HOP-62 NSCLC) | GI50 (SK-OV-3 ovarian) | GI50 (SNB-75 CNS) | GI50 (NCI-H460 lung) | GI50 (BT-549 breast) | GI50 (NCI-H226 lung) | GI50 (HCT-116 colon) | GI50 (LOX IMVI melanoma)
1 | O=C1CC(c2ccccc2)Oc2ccccc21 (centres undefined) | > 100 µM | > 100 µM | > 100 µM | > 100 µM | 84.3 µM | > 100 µM | > 100 µM | 42.1 µM | > 100 µM | – | – | – | – | – | – | – | – | – | – | –
2 | COc1ccc(OC)c(NCC(=O)n2nc(/C=C\c3ccc(O)c(OC)c3)cc2/C=C\c2ccc(O)c(OC)c2)c1 | 6.18 µM | – | 13 µM | 6.23 µM | – | 9.75 µM | 9.84 µM | 5.7 µM | 16.1 µM | 3.4 µM | 33.1 µM | 2.02 µM | 3.03 µM | 2.38 µM | 2.2 µM | 2.59 µM | 1.44 µM | 3.16 µM | – | –
3 | CCN=c1sc2c(n1NC(=O)c1cc3ccc1CCc1ccc(cc1)CC3)C(=O)c1ccccc1C2=O | 1.11 µM | 2.07 µM | 2.76 µM | 8.95 µM | 1.24 µM | 0.787 µM | 4.86 µM | 0.974 µM | 7.33 µM | 0.738 µM | 1.71 µM | 0.577 µM | 1.02 µM | 4.49 µM | 0.231 µM | 1.31 µM | 0.511 µM | 2.21 µM | 0.754 µM | 0.478 µM
4 | CN(C)CCCC1(c2ccc(F)cc2)OCc2cc(-c3cccc4[nH]ccc34)ccc21 (centres undefined) | 3.33 µM | 2.82 µM | 2.89 µM | 3.25 µM | 3.2 µM | 3.37 µM | 3.63 µM | 3.54 µM | 3.52 µM | 1.6 µM | 3.07 µM | 1.66 µM | 1.5 µM | 1.75 µM | 1.27 µM | 1.89 µM | 1.87 µM | 1.76 µM | 1.37 µM | 1.71 µM
5 | COc1ccc2c(N)ncc(C#Cc3cc(C(=O)Nc4ccc(CN5CCN(C)CC5)c(C(F)(F)F)c4)cnc3C)c2c1 | 0.934 µM | 1.05 µM | 33.2 µM | 15 µM | 1.08 µM | 4.38 µM | 1.03 µM | 14.9 µM | 9.5 µM | 0.576 µM | 1.28 µM | 0.225 µM | 4.36 µM | 1.7 µM | 0.729 µM | 0.476 µM | 6.02 µM | 1.27 µM | 0.483 µM | 0.505 µM
6 | COc1ccc2c(c1)c(-c1nc(-c3c[nH]c4ncccc34)cs1)cn2CCCN1CCOCC1 | 3.58 µM | 4.04 µM | 7.18 µM | 8.28 µM | 3.27 µM | 3.4 µM | 6.6 µM | 5.87 µM | 15.9 µM | 4.04 µM | 13.1 µM | 1.77 µM | 2.24 µM | 2.83 µM | 1.27 µM | 2.54 µM | 2 µM | 3.1 µM | 1.85 µM | 1.74 µM
7 | N#CC1c2ccccc2C=CN1C(=O)CCCl (centres undefined) | 27.6 µM | 11.3 µM | 40.6 µM | 31.3 µM | 13.4 µM | 25.3 µM | 36.3 µM | 30.7 µM | 54.9 µM | 20.1 µM | 37.3 µM | 13.6 µM | 19.8 µM | 17.2 µM | 10.6 µM | 18.4 µM | 16.9 µM | 17.6 µM | 3.59 µM | 3.94 µM
8 | CCn1cc(C(=O)O)c(=O)c2cc(F)c(N3CCN(S(=O)(=O)c4cccc5ccccc45)CC3)cc21 | > 100 µM | > 100 µM | 39.2 µM | 13.4 µM | – | 8.49 µM | > 100 µM | > 100 µM | > 100 µM | 2.87 µM | > 100 µM | 4.37 µM | 4.6 µM | 3.11 µM | 1.89 µM | 3.43 µM | 3.69 µM | 3.71 µM | 3.88 µM | –
9 | CN[C@@H](C)C(=O)N[C@H]1CN(S(=O)(=O)c2cccc(S(=O)(=O)N3CC[C@H]4CC[C@@H](C(=O)NC(c5ccccc5)c5ccccc5)N4C(=O)[C@@H](NC(=O)[C@H](C)NC)C3)c2)CC[C@H]2CC[C@@H](C(=O)NC(c3ccccc3)c3ccccc3)N2C1=O | > 100 µM | 51.2 µM | > 100 µM | – | 36.5 µM | 0.721 µM | 46.3 µM | < 0.0197 µM | > 100 µM | > 53.1 µM | > 100 µM | 34.3 µM | 5.14 µM | – | – | 20.2 µM | < 0.01 µM | 28.9 µM | 18.4 µM | 14.8 µM
10 | CCn1c2c(c3ccccc3c1=O)C(=O)c1ccccc1-2 | > 100 µM | > 100 µM | > 100 µM | > 100 µM | > 100 µM | > 100 µM | – | > 100 µM | > 100 µM | – | > 100 µM | – | – | – | – | – | – | – | – | –
11 | COc1ccc(OC)c(/C=C/c2nc(=S)n(-c3ccc(Cl)cc3)[nH]2)c1 | > 100 µM | > 100 µM | > 100 µM | > 100 µM | > 100 µM | > 100 µM | > 100 µM | > 100 µM | – | 9.07 µM | > 100 µM | 4.24 µM | 6.48 µM | 9.4 µM | 2.85 µM | 4.53 µM | 9.38 µM | – | 4.05 µM | 5.02 µM
12 | COc1ccc2sc3c(NCCCN)nc4ccccc4c3c(=O)c2c1 | 3.18 µM | 2.85 µM | 3.46 µM | 3.66 µM | – | 2.72 µM | 3.55 µM | 3.55 µM | 3.84 µM | 1.64 µM | 3.39 µM | 1.74 µM | 1.7 µM | 1.61 µM | 1.38 µM | 1.86 µM | 1.69 µM | 1.84 µM | 1.5 µM | –
13 | COCC([C@@H](O)C(O)C(=O)NCC[C@@H](C)c1nc(/C=C/CC2OC3(C[C@H](O)C2C)OC(C(C[C@H](O)C(C)[C@H](O)C(C)/C=C(C)/C(C)=C/C=C/C(C)=C/C#N)OC)[C@@H](OP(=O)(O)O)C3(C)C)co1)N(C)C (some centres undefined) | 0.000323 µM | 0.000315 µM | – | 0.00154 µM | 0.000561 µM | 0.000327 µM | 0.000272 µM | 0.000312 µM | 0.000282 µM | – | 0.00147 µM | – | – | – | – | – | – | – | – | –
